Laboratory results: patent publication US4634704A, “Anti-allergic five membered heterocyclic ring containing N-(bicyclic heterocycyl)-4-piperidinamines” (Janssen Pharmaceutica, N.V., priority 1984, dated 1987)
Counter-ions that a name gives are not always drawn.

test system: compound 48/80-induced lethality; assay: Protection of rats from compound 48/80-induced lethality; assay type: in vivo, rat (male, inbred Wistar strain); settings: Rattus norvegicus, 4 h, read-out: compound 48/80 lethality test in rats-ED50, dose protecting 50% of animals; subcutaneous or oral, 1 h before compound 48/80 0.5 mg/kg i.v.; survival after 4 h
Description: Protection of rats from compound 48/80-induced lethality.
The protection from compound 48/80-induced lethal circulatory collapse appears to be a simple way of evaluating quantitatively the antihistaminic activity of test compounds. Male rats of an inbred Wistar strain, weighing 240-260 g were used in the experiment. After overnight starvation the rats were transferred to conditioned laboratories (temp.=21±1° C., relative humidity=65±5%).
The rats were treated subcutaneously or orally with a test compound or with the solvent (NaCl solution, 0.9%). […] Survival after 4 hours is therefore considered to be a safe criterion of a protective effect of drug administration.
The ED50 -values of the compounds of formula (I) are listed in the first column of table 1. Said ED50 -values are the values in mg/kg body weight at which the tested compounds protect 50% of the tested animals against compound 48/80-induced lethality.

Going from `Fc1ccc(Cn2c(NC3CCN(Cc4nc5ccccc5[nH]4)CC3)nc3ccccc32)cc1.O` [Compound 2, N-[1-(1H-benzimidazol-2-ylmethyl)-4-piperidinyl]-1-(4fluorophenylmethyl)-1H-benzimidazol-2-amine monohydrate] to `N=C(NCCN1CCC(Nc2nc3ccccc3n2Cc2ccc(F)cc2)CC1)Nc1nc2ccccc2[nH]1` [Compound 66, N-(1H-benzimidazol-2-yl)-N'-[2-[4-[[1-[(4-fluorophenyl)methyl]-1H-benzimidazol-2-yl]amino]-1-piperidinyl]ethyl]guanidine trihydrochloride.dihydrate], the ED50 falls from 0.63 mg/kg to 0.31 mg/kg (2-fold).

Going from `CCn1nnnc1OCCN1CCC(Nc2nc3ccccc3n2Cc2ccc(F)cc2)CC1` [Compound 10, N-[1-[2-[(1-ethyl-1H-tetrazol-5-yl)oxy]ethyl]-4-piperidinyl]-1-[(4-fluorophenyl)methyl]-1H-benzimidazol-2-amine (E)-2-butenedioate (2:5)] to `CCn1nnnc1SCCN1CCC(Nc2nc3ccccc3n2Cc2ccc(F)cc2)CC1` [Compound 74, N-[1-[2-[(1-ethyl-1H-tetrazol-5-yl)thio]ethyl]-4-piperidinyl]-1-[(4-fluorophenyl)methyl]-1H-benzimidazol-2-amine], the ED50 rises from 0.04 mg/kg to 0.08 mg/kg (2-fold).

Compared with `Cn1cnc([N+](=O)[O-])c1NCCN1CCC(Nc2nc3ccccc3n2Cc2ccc(F)cc2)CC1` [Compound 12], `O=[N+]([O-])c1cnc(NCCN2CCC(Nc3nc4ccccc4n3Cc3ccc(F)cc3)CC2)s1` [Compound 32] is 2-fold higher in ED50: 0.31 mg/kg for the first, 0.63 mg/kg for the second.

Going from `Fc1ccc(Cn2c(NC3CCN(CCNc4nc5ccccc5s4)CC3)nc3ccccc32)cc1` [Compound 19] to `Fc1ccc(Cn2c(NC3CCN(CCOc4nc5ccccc5s4)CC3)nc3ccccc32)cc1` [Compound 67, N-[1-[2-(2-benzothiazolyloxy)ethyl]-4-piperidinyl]-1-[(4-fluorophenyl)methyl]-1H-benzimidazol-2-amine], the ED50 rises from 0.31 mg/kg to 0.63 mg/kg (2-fold).

First: Fc1ccc(Cn2c(NC3CCN(CCCNc4nccs4)CC3)nc3ccccc32)cc1 [Compound 20]
Second: Fc1ccc(Cn2c(NC3CCN(CCCCNc4nccs4)CC3)nc3ccccc32)cc1 [Compound 53]
The ED50 of the first is 1.9-fold lower: 0.16 mg/kg for the first, 0.31 mg/kg for the second.

First: Fc1ccc(Cn2c(NC3CCN(CCNc4nccs4)CC3)nc3ccncc32)cc1 [Compound 23]
Second: Nc1ccc(Cn2c(NC3CCN(CCNc4nccs4)CC3)nc3ccccc32)cc1 [Compound 35]
The ED50 of the first is 3.9-fold lower: 0.08 mg/kg for the first, 0.31 mg/kg for the second.

`COc1ccc(Cn2c(NC3CCN(CCNc4nccs4)CC3)nc3ccccc32)cc1` [Compound 24] and `O=[N+]([O-])c1ccc(Cn2c(NC3CCN(CCNc4nccs4)CC3)nc3ccccc32)cc1` [Compound 43] are the same in ED50: 0.31 mg/kg for the first, 0.31 mg/kg for the second.

Going from `CN(c1nc2ccccc2n1Cc1ccc(F)cc1)C1CCN(CCNc2nccs2)CC1` [Compound 26] to `CN(CCN1CCC(Nc2nc3ccccc3n2Cc2ccc(F)cc2)CC1)c1nccs1` [Compound 50, 1-[(4-fluorophenyl)methyl]-N-[1-[2-[methyl(2-thiazolyl)amino]ethyl]-4-piperidinyl]-1H-benzimidazol-2-amine], the ED50 rises from 0.02 mg/kg to 0.08 mg/kg (4-fold).

Going from `c1ccc(Cn2c(NC3CCN(CCNc4nccs4)CC3)nc3ccccc32)nc1` [Compound 27] to `c1ccc(Cn2c(NC3CCN(CCNc4nccs4)CC3)nc3cccnc32)nc1` [Compound 57], the ED50 falls from 0.04 mg/kg to 0.005 mg/kg (8-fold).

Going from `CCc1nnc(NCCN2CCC(Nc3nc4ccccc4n3Cc3ccc(F)cc3)CC2)s1` [Compound 33] to `Fc1ccc(Cn2c(NC3CCN(CCSc4nc5ccccc5o4)CC3)nc3ccccc32)cc1` [Compound 73, N-[1-[2-[(2-benzoxazolyl)thio]ethyl]-4-piperidinyl]-1-[(4-fluorophenyl)methyl]-1H-benzimidazol-2-amine], the ED50 rises from 0.16 mg/kg to 0.63 mg/kg (3.9-fold).

For `c1coc(Cn2c(NC3CCN(CCNc4nccs4)CC3)nc3cccnc32)c1` [Compound 56], the ED50 was 0.01 mg/kg.

same assay, conditions: dose protecting 50% of animals; subcutaneous or oral, 1 h before compound 48/80 0.5 mg/kg i.v.; survival after 4 h; 0.5 mg/kg, 240 min

`Fc1ccc(Cn2c(NC3CCN(CCNc4nccs4)CC3)nc3ccccc32)cc1` [Compound 16] was tested, and the “compound 48/80 lethality test in rats-ED50” value was 0.08 mg/kg body weight.
